The record followed here is ChEMBL document CHEMBL1137265, “Macrolactin N, a new peptide deformylase inhibitor produced by Bacillus subtilis” (Bioorg Med Chem Lett, 2006).

In brackets after ≈: the same amount, converted by molar mass.

As usually defined, the IC50 is the concentration at which inhibition is half-maximal. As a reminder, the MIC50 is the lowest concentration that inhibits either 50% of growth or 50% of the strains tested, depending on the study. Read a high MIC50 as weaker potency. A word on the MIC: it is the lowest concentration that inhibits growth of the organism.

In one experiment the target is T1, Peptide deformylase (Staphylococcus aureus, UniProt P68826).
T1 sequence (P68826 whole entry): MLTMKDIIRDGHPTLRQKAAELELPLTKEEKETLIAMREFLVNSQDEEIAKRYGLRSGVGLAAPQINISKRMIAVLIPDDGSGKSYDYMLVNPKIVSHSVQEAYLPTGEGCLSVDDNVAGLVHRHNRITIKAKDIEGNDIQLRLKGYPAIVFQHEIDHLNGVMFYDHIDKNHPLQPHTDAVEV
Briefly: Inhibition of Staphylococcus aureus peptide deformylase in presence of substrate f-MAS.

The test system of the next experiment is Bacillus subtilis. Put plainly: Antibacterial activity against Bacillus subtilis KCTC 1021 by microdilution broth method. Format: functional. (In general: Dilution methods test growth across graded concentrations, often in twofold steps.)
Another experiment has as its system Escherichia coli. Put plainly: Antibacterial activity against Escherichia coli KCTC 1924 by microdilution broth method. Format: functional.
Another experiment relates to Staphylococcus aureus. Briefly: Antibacterial activity against Staphylococcus aureus RN4220 by microdilution broth method. Format: functional.

Regarding `CC1CCC/C=C/CCC(=O)CCC/C=C\C=C\[C@@H](O)C/C=C/C=C\C(=O)O1` (some centres undefined), on Peptide deformylase, the IC50 came out at 7.5 µM. The MIC50 with Bacillus subtilis and against Staphylococcus aureus was 100 µg/mL (≈ 259 µM) throughout. Also, in the experiment on Escherichia coli, 100 µg/mL (≈ 259 µM) was the least that counted as inhibitory (MIC).
